Measured values as given in patent US20240150346A1, “CLASS OF HETEROAROMATIC COMPOUND, PREPARATION METHOD THEREFOR AND USE THEREOF” (INNOVSTONE THERAPEUTICS LIMITED, priority 2021, published 2024).

Target: T1, human-derived receptor TLR7 (Homo sapiens, UniProt Q9NYK1)
T1 construct: host or cells: HEK-Blue hTLR7 cells (HEK293-derived reporter line)
T1 sequence (Q9NYK1 27-1049): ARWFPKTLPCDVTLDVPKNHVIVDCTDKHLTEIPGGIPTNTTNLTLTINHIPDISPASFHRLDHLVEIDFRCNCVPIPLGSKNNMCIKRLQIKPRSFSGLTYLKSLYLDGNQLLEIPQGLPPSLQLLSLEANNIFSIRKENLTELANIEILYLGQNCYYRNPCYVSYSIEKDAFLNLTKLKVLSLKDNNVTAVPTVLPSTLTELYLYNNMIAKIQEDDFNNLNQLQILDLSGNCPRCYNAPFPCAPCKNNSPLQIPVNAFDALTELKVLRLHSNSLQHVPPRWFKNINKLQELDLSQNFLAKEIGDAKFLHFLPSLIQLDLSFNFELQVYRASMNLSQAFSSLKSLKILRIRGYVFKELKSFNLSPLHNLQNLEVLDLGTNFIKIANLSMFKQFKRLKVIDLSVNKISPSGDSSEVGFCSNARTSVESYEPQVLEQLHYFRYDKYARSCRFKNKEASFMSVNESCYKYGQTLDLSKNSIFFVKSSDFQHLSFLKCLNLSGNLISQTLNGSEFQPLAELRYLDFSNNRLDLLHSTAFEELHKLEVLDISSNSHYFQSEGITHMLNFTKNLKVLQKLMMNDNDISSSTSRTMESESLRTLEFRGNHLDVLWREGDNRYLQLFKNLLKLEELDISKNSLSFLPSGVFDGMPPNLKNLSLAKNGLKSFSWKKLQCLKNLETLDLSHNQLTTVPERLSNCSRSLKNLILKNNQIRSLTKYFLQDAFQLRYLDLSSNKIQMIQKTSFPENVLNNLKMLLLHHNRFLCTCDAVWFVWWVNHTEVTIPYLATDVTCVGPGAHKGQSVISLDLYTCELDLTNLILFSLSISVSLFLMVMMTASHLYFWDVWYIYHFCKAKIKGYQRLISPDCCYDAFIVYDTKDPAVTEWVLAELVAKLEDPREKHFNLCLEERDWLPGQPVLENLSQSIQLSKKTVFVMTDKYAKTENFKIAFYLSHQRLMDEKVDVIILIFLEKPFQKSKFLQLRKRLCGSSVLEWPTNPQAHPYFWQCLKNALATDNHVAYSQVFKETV
Assay: Assay on agonistic activity for human-derived receptor TLR7 (HEK-Blue hTLR7 cells, HEK-Blue Detection Medium)
Type: cell-based
Settings: 16 h incubation, absorbance at 655 nm, read-out: EC50
Method: HEK-Blue™ hTLR7 cells (InvivoGen, hkb-htlr7) were cultured in a DMEM complete medium (Gibco, 12100) containing 10% FBS (Invitrogen, 10099141), 1% P/S (Invitrogen, 15140122), 10 μg/mL Blasticidin (InvivoGen, ant-bl-1), 100 μg/mL Zeocin (InvivoGen, ant-zn-1), and 100 μg/mL Normocin (InvivoGen, ant-nr-1). The cells were cultured in an incubator at 37° C. with 5% CO2. When HEK-Blue™ hTLR7 cells reached a growth density of 70%-80%, cell passage was needed.
The agonistic activity for the human-derived receptor TLR7 by HEK-Blue™ hTLR7 cells was assayed by HEK-Blue™ Detection Medium (InvivoGen, hd-det2). First, a bag of HEK-Blue™ Detection Medium powder was dissolved in 50 mL of ultra-pure sterile water for complete dissolution, and then the dissolved medium was filtered into a new 50 mL centrifuge tube through a 0.22 μm filter. Finally, antibiotics were added into the filtered detection medium until the final concentration was 1% for P/S and 100 μg/mL for Normocin. HEK-Blue™ Detection Medium was pre-heated to 37° C. in advance on the day of the assay on the activity for the TLR7 receptor, and the temperature was always maintained at 37° C.
The compound powder was dissolved in 100% DMSO (Sigma, D2650-100ML) to obtain a 10 mM stock solution, and the compound was completely dissolved by shaking with an oscillator. The stock solution of the compound was subjected to a 5-fold dilution to 2 mM with 100% DMSO. This was followed by a 3-fold serial dilution for a total of 8 concentration gradients. Then, each of the concentration gradients was subjected to a 20-fold dilution to 100 μM, 33.3 μM, 11.1 μM, 3.7 μM, 1.23 μM, […], 0.114 μM, and 0.05 μM using HEK-Blue™ Detection Medium. 20 μL of each of the dilutions was added to a 96-well cell culture plate (Corning, 3599).
On the day of the assay on the agonistic activity for the human-detived receptor TLR7, HEK-Blue™ hTLR7 cells has a growth density of 70%-80%, and the cell medium was removed. 1 mL of cell dissociation buffer (Gibco, 13151-014) was added to each 100 mm cell culture dish, and the cells were incubated in an incubator at 37° C. for 5 min. The cells were pipetted using a DMEM cell medium to obtain a single cell suspension, which was then centrifuged at 1000 rpm for 10 min to collect the cell pellet. The cell pellet was resuspended with HEK-Blue™ Detection Medium pre heated to 37° C. The cells were counted and diluted to 220,000 cells/mL. Finally, 180 μL of cell suspension (40,000 cells/well) was added to each well of the 96-well cell culture plate to which the compound had been added, and the cell suspension was mixed with the compound using a pipettor. Final concentrations of the compound were 10 μM, 3.3 μM, 1.1 μM, 0.37 μM, 0.12 μM, 0.04 μM, 0.01 μM, and 0.005 μM. After incubation in an incubator at 37° C. for 16 h, the absorbance was read at 655 nm using an M5e microplate reader (MD, USA).
The EC50 of the compound was calculated using the software GraphPad Prism (GraphPad Software, USA). The background reading of the detection culture was subtracted from the absorbance readings at 655 nm of all wells of the 96-well plate, the ratio of each well to the negative control well (the well without the compound) was calculated, and then the percentage of the ratio of each well to the positive control well (the well treated with 10 μM positive compound), i.e., the percentage of activity, was calculated. Finally, the sigmoidal dose-response (variable slope) curve between the percentage of activity and the concentration of the compound was calculated using the software GraphPad Prism to calculate the EC50 of the compound. […]

Compound	EC50
CCCCOc1nc(N)c2[nH]c(=O)n(Cc3cccc(CN4CCCC4=O)c3)c2n1 [Example 42, 6-amino-2-butoxy-9-(3-((2-oxopyrrolidin-1-yl)methyl)benzyl)-7,9-dihydro-8H-purin-8-one]	< 50 nM
C=CCSc1nc2c(N)nc3ccccc3c2n1Cc1ccc(CN2CC[C@H](F)C2)cc1 [Example 210]	50 to 100 nM
CCCCOc1nc(N)c2[nH]c(=O)n(Cc3ccc(CN4CCC(N)C4)s3)c2n1 (stereo not shown) [Example 49, 6-amino-9-((5-((3-aminopyrrolidin-1-yl)methyl)thien-2-yl)methyl)-2-butoxy-7,9-dihydro-8H-purin-8-one]	< 50 nM
Nc1nc2ccccc2c2c1nc(SCC(F)F)n2Cc1ccc(CN2CCCC2)cc1 [Example 179]	< 50 nM
CSc1nc2c(N)nc3ccccc3c2n1Cc1ccc(CNC(C)C)cc1 [Example 188]	50 to 100 nM
COc1cc(CN2C[C@H]3CN(C)C[C@H]3C2)ccc1Cn1c(SC)nc2c(N)nc3ccccc3c21 [Example 239]	50 to 100 nM
CCCSc1nc2c(N)nc3ccccc3c2n1Cc1ccc(CN2CCCC2)cc1 [Example 159]	< 50 nM
